From ChEMBL document CHEMBL1201862, “PubChem BioAssay data set” (2004)
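Grown in 96-well plates, cells were treated for 48 hours with each compound at five concentrations. Insufficient inhibition: endpoint recorded as highest concentration tested. GI50: concentration for 50% inhibition of growth.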 Activity calls are given as the source filed them. Cut-off read from the data, not from the text of the source: active = GI50 up to about 1.1 µM and inactive = higher. Where a SMILES comes first, the peptide text is derived from it. [ ]: non-standard residue; d: D form. Phe(F5) = N[CH](Cc1c(F)c(F)c(F)c(F)c1F)C(=O)O

What was measured:
Test in all cases: DTP human tumour cell line panel, 48 h
IGROV-1 = test system: IGROV-1
MCF7 = test system: MCF7
SNB-19 = test system: SNB-19
RPMI-8226 = test system: RPMI-8226
K562 = test system: K562
NCI-H226 = test system: NCI-H226
A498 = test system: A498
LOX IMVI = test system: LOX IMVI
NCI-H522 = test system: NCI-H522
HOP-62 = test system: HOP-62
OVCAR-5 = test system: OVCAR-5
KM12 = test system: KM12
SF-268 = test system: SF-268
SK-OV-3 = test system: SK-OV-3
HT-29 = test system: HT-29
UO-31 = test system: UO-31
NCI-H460 = test system: NCI-H460
SN12C = test system: SN12C
SK-MEL-2 = test system: SK-MEL-2
NCI/ADR-RES = test system: NCI/ADR-RES

N=C1OC(CN2CCN(c3ccccc3)CC2)CN1C(=O)Nc1ccccc1 (stereo not given)
GI50 (IGROV-1): > 100 µM (inactive) | GI50 (MCF7): > 100 µM (inactive) | GI50 (SNB-19): > 100 µM (inactive) | GI50 (RPMI-8226): > 100 µM (inactive) | GI50 (K562): 60.5 µM (inactive) | GI50 (NCI-H226): > 100 µM (inactive) | GI50 (A498): > 100 µM (inactive) | GI50 (LOX IMVI): > 100 µM (inactive) | GI50 (NCI-H522): 39.7 µM (inactive) | GI50 (HOP-62): > 100 µM (inactive) | GI50 (OVCAR-5): > 100 µM (inactive) | GI50 (KM12): > 100 µM (inactive) | GI50 (SF-268): > 100 µM (inactive) | GI50 (SK-OV-3): > 100 µM (inactive) | GI50 (HT-29): > 100 µM (inactive) | GI50 (UO-31): > 100 µM (inactive) | GI50 (NCI-H460): > 100 µM (inactive) | GI50 (SN12C): > 100 µM (inactive) | GI50 (SK-MEL-2): > 100 µM (inactive) | GI50 (NCI/ADR-RES): > 100 µM (inactive)

C=CC[C@H]1[C@@H](O[Si](C)(C)C(C)(C)C)[C@H](n2ccc(=O)[nH]c2=O)O[C@@H]1CO[Si](C)(C)C(C)(C)C
GI50 (IGROV-1): 2.32 µM (inactive) | GI50 (MCF7): 1.77 µM (inactive) | GI50 (SNB-19): 2.39 µM (inactive) | GI50 (RPMI-8226): 2.11 µM (inactive) | GI50 (K562): 2.2 µM (inactive) | GI50 (NCI-H226): 4.11 µM (inactive) | GI50 (A498): 3.01 µM (inactive) | GI50 (LOX IMVI): 1.63 µM (inactive) | GI50 (NCI-H522): 1.76 µM (inactive) | GI50 (HOP-62): 1.76 µM (inactive) | GI50 (OVCAR-5): 1.5 µM (inactive) | GI50 (KM12): 1.65 µM (inactive) | GI50 (SF-268): 2.99 µM (inactive) | GI50 (SK-OV-3): 1.36 µM (inactive) | GI50 (HT-29): 1.59 µM (inactive) | GI50 (UO-31): 1.69 µM (inactive) | GI50 (NCI-H460): 1.9 µM (inactive) | GI50 (SN12C): 1.52 µM (inactive) | GI50 (SK-MEL-2): 2.62 µM (inactive) | GI50 (NCI/ADR-RES): 2.15 µM (inactive)

COC(=O)c1c(C)c2c(c(C)c1C(=O)OC)-c1c(C)ccc3ccc(C)c-2c13
GI50 (IGROV-1): 54 µM (inactive) | GI50 (MCF7): > 78.3 µM (inactive) | GI50 (SNB-19): > 87.5 µM (inactive) | GI50 (RPMI-8226): 7.28 µM (inactive) | GI50 (K562): 3.03 µM (inactive) | GI50 (NCI-H226): > 100 µM (inactive) | GI50 (A498): > 72.6 µM (inactive) | GI50 (LOX IMVI): 12.1 µM (inactive) | GI50 (NCI-H522): 31.2 µM (inactive) | GI50 (HOP-62): > 100 µM (inactive) | GI50 (OVCAR-5): > 68.7 µM (inactive) | GI50 (KM12): 9.38 µM (inactive) | GI50 (SF-268): 54 µM (inactive) | GI50 (SK-OV-3): > 74.8 µM (inactive) | GI50 (HT-29): 7.82 µM (inactive) | GI50 (UO-31): 47.8 µM (inactive) | GI50 (NCI-H460): 18.6 µM (inactive) | GI50 (SN12C): > 93.8 µM (inactive) | GI50 (SK-MEL-2): > 100 µM (inactive) | GI50 (NCI/ADR-RES): 26.7 µM (inactive)

CC(C)C(Cl)CCC(C)(Cl)C(=O)CBr (stereo not given)
GI50 (IGROV-1): 6.67 µM (inactive) | GI50 (MCF7): 2.37 µM (inactive) | GI50 (SNB-19): 29.6 µM (inactive) | GI50 (RPMI-8226): 0.634 µM (active) | GI50 (K562): 1.02 µM (active) | GI50 (NCI-H226): 17.8 µM (inactive) | GI50 (A498): 15 µM (inactive) | GI50 (LOX IMVI): 0.776 µM (active) | GI50 (NCI-H522): 1.06 µM (active) | GI50 (HOP-62): 8.22 µM (inactive) | GI50 (OVCAR-5): 12.8 µM (inactive) | GI50 (KM12): 14.5 µM (inactive) | GI50 (SF-268): 20.7 µM (inactive) | GI50 (SK-OV-3): 20 µM (inactive) | GI50 (HT-29): 4.36 µM (inactive) | GI50 (UO-31): 5.98 µM (inactive) | GI50 (NCI-H460): 16.1 µM (inactive) | GI50 (SN12C): 14.5 µM (inactive) | GI50 (SK-MEL-2): 8.32 µM (inactive) | GI50 (NCI/ADR-RES): 6.81 µM (inactive)

Cc1ccc2c(O)cc(-c3cccc4ccccc34)nc2n1
GI50 (IGROV-1): 0.0627 µM (active) | GI50 (MCF7): 0.0256 µM (active) | GI50 (SNB-19): 0.0445 µM (active) | GI50 (RPMI-8226): 0.0227 µM (active) | GI50 (K562): < 0.01 µM (active) | GI50 (NCI-H226): 0.0398 µM (active) | GI50 (A498): 0.0101 µM (active) | GI50 (LOX IMVI): 0.0229 µM (active) | GI50 (NCI-H522): < 0.0187 µM (active) | GI50 (HOP-62): 1.88 µM (inactive) | GI50 (OVCAR-5): 0.0375 µM (active) | GI50 (KM12): 0.0241 µM (active) | GI50 (SF-268): 0.762 µM (active) | GI50 (SK-OV-3): 0.021 µM (active) | GI50 (HT-29): < 0.0116 µM (active) | GI50 (UO-31): 0.189 µM (active) | GI50 (NCI-H460): 0.0342 µM (active) | GI50 (SN12C): 0.181 µM (active) | GI50 (SK-MEL-2): 0.0182 µM (active) | GI50 (NCI/ADR-RES): 0.0186 µM (active)

COC(=O)C(CC(C)C)NC(=O)C(Cc1c[nH]cn1)NC(=O)CNC(=O)C(NC(=O)C(C)NC(=O)C(Cc1c[nH]c2ccccc12)NC(=O)C(CCC(=O)O)NC(=O)C(N)Cc1c(F)c(F)c(F)c(F)c1F)C(C)C (stereo not given) (H-[Phe(F5)]EWAVGHL-OMe; configuration not given here)
GI50 (IGROV-1): > 12.5 µM (inactive) | GI50 (MCF7): > 12.5 µM (inactive) | GI50 (SNB-19): > 100 µM (inactive) | GI50 (RPMI-8226): > 12.5 µM (inactive) | GI50 (K562): > 12.5 µM (inactive) | GI50 (NCI-H226): > 12.5 µM (inactive) | GI50 (A498): > 12.5 µM (inactive) | GI50 (LOX IMVI): > 12.5 µM (inactive) | GI50 (NCI-H522): > 12.5 µM (inactive) | GI50 (HOP-62): > 12.5 µM (inactive) | GI50 (OVCAR-5): > 12.5 µM (inactive) | GI50 (KM12): > 12.5 µM (inactive) | GI50 (SF-268): > 12.5 µM (inactive) | GI50 (SK-OV-3): > 12.5 µM (inactive) | GI50 (HT-29): > 12.5 µM (inactive) | GI50 (UO-31): > 12.5 µM (inactive) | GI50 (NCI-H460): > 12.5 µM (inactive) | GI50 (SN12C): > 12.5 µM (inactive) | GI50 (SK-MEL-2): > 12.5 µM (inactive) | GI50 (NCI/ADR-RES): > 12.5 µM (inactive)

CC(=O)Oc1ccc(C(c2ccc(OC(C)=O)cc2)c2ccccn2)cc1 [BISACODYL]
GI50 (IGROV-1): 71.6 µM (inactive) | GI50 (MCF7): 0.378 µM (active) | GI50 (SNB-19): > 100 µM (inactive) | GI50 (RPMI-8226): 65.3 µM (inactive) | GI50 (K562): 59.4 µM (inactive) | GI50 (NCI-H226): 87.3 µM (inactive) | GI50 (A498): 59 µM (inactive) | GI50 (LOX IMVI): 29.2 µM (inactive) | GI50 (NCI-H522): 76.7 µM (inactive) | GI50 (HOP-62): > 92.7 µM (inactive) | GI50 (OVCAR-5): 22.1 µM (inactive) | GI50 (KM12): 70.3 µM (inactive) | GI50 (SF-268): > 100 µM (inactive) | GI50 (SK-OV-3): 59.4 µM (inactive) | GI50 (HT-29): > 93.5 µM (inactive) | GI50 (UO-31): 69.7 µM (inactive) | GI50 (NCI-H460): 99.1 µM (inactive) | GI50 (SN12C): 7.16 µM (inactive) | GI50 (SK-MEL-2): 98.6 µM (inactive) | GI50 (NCI/ADR-RES): 1.32 µM (inactive)

O=CN/C=C/c1cc(O)ccc1O [ERBSTATIN]
GI50 (IGROV-1): 26.2 µM (inactive) | GI50 (MCF7): 11.3 µM (inactive) | GI50 (SNB-19): > 66.7 µM (inactive) | GI50 (RPMI-8226): 26.3 µM (inactive) | GI50 (K562): 14.8 µM (inactive) | GI50 (NCI-H226): 44 µM (inactive) | GI50 (A498): 59.7 µM (inactive) | GI50 (LOX IMVI): 14 µM (inactive) | GI50 (NCI-H522): 4.6 µM (inactive) | GI50 (HOP-62): > 74.1 µM (inactive) | GI50 (OVCAR-5): > 85.7 µM (inactive) | GI50 (KM12): > 89.3 µM (inactive) | GI50 (SF-268): 17.2 µM (inactive) | GI50 (SK-OV-3): > 62.4 µM (inactive) | GI50 (HT-29): 22.2 µM (inactive) | GI50 (UO-31): 29.7 µM (inactive) | GI50 (NCI-H460): 56.2 µM (inactive) | GI50 (SN12C): 16.7 µM (inactive) | GI50 (SK-MEL-2): 29.3 µM (inactive) | GI50 (NCI/ADR-RES): 18.1 µM (inactive)
